Source: US11618765B2, “Broad-spectrum antiviral nucleoside derivatives” (priority 2020, dated 2023)

What was measured:
Molt-4 DNA polymerase a = molecular target: T1, Molt-4 DNA polymerase a (Homo sapiens, UniProt P09884); settings: read-out: IC50 for inhibition of Molt-4 DNA polymerase a; cited from earlier work
T1 construct: host or cells: Molt-4

[1] = molecular target: T2, HIV-reverse transcriptase (Human immunodeficiency virus type 1 group M subtype B, UniProt P04585); assay: inhibition of HIV-reverse transcriptase; type: biochemical; settings: ratio of IC50 values
Excerpt: Another example of a pyrimidine nucleoside analog as a direct acting antiviral is imidine (dImd), a thymidine analog, [17]. […] Its monophosphate (dIMP) readily incorporated into proviral DNA in place of dTMP, preferentially opposite to adenine (A) in the viral RNA template and caused a decrease in the fidelity of replication at the incorporated sites, due to misincorporation.

[2] = molecular target: T2, HIV-reverse transcriptase; settings: read-out: IC50 for inhibition of HIV-reverse transcriptase; cited from earlier work
human cells in culture = settings: cited from earlier work

T1 sequence (P09884 whole entry): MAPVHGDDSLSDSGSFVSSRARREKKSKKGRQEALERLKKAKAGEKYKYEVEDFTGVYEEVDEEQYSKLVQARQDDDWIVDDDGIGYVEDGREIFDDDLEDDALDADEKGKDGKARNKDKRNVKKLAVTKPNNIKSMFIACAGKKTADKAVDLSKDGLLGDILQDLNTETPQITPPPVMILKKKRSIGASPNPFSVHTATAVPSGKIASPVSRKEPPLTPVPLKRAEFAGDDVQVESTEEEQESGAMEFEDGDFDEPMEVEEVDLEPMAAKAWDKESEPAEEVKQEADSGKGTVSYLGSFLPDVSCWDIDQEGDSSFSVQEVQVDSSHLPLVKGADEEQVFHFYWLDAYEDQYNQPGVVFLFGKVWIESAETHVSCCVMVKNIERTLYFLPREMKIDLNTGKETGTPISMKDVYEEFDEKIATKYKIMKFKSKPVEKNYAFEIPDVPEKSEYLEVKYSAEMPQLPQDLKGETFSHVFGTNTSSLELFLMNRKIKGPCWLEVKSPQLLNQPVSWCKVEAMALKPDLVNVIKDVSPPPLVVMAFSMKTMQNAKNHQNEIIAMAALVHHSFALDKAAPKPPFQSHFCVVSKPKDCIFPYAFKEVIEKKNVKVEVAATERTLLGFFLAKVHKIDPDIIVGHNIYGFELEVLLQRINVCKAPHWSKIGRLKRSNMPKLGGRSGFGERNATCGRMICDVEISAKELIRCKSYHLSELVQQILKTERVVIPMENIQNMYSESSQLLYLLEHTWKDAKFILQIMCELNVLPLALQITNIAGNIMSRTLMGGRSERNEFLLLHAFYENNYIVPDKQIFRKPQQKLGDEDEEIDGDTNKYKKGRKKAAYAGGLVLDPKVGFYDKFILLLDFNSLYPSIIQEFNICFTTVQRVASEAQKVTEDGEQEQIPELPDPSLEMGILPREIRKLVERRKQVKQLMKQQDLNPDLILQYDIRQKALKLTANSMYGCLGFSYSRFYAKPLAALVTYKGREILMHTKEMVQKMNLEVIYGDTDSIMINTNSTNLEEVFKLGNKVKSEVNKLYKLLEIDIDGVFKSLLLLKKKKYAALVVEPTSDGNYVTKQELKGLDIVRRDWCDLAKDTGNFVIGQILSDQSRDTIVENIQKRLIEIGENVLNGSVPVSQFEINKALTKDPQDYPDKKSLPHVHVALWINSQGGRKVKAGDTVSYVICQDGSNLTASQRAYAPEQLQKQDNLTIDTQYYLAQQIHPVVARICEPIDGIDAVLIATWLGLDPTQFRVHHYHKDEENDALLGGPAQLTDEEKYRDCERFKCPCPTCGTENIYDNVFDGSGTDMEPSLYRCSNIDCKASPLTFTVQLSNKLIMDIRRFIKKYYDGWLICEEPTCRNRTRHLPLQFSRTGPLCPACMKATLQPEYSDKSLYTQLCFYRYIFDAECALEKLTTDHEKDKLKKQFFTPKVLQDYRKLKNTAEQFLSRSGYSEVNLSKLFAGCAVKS
T1 sequence (Q14181 whole entry partner): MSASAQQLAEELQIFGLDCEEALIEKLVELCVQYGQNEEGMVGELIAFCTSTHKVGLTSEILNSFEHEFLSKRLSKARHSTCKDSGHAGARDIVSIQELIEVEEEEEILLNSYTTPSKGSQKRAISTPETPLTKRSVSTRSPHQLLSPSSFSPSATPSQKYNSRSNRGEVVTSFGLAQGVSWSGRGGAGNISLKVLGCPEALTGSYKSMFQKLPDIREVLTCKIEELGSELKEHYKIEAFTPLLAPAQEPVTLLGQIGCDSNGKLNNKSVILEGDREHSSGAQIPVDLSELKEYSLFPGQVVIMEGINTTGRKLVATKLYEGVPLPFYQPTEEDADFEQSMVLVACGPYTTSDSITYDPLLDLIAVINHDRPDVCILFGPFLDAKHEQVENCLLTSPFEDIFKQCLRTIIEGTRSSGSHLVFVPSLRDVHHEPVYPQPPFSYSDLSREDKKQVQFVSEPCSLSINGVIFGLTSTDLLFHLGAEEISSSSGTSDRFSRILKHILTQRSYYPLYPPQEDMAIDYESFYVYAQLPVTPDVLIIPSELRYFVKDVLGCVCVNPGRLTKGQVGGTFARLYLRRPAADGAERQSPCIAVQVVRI
T1 sequence (P49642 whole entry partner): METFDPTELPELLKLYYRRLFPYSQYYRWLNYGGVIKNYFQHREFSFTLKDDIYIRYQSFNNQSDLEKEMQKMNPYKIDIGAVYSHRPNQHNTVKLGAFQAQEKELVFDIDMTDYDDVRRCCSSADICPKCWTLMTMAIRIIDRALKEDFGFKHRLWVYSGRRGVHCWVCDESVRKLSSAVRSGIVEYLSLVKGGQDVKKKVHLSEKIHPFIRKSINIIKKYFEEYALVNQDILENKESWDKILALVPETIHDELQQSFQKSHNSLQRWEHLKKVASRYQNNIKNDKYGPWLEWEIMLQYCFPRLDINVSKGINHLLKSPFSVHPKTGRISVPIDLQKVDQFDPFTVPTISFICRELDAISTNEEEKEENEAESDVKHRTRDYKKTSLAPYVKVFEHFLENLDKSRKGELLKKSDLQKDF
T1 sequence (P49643 whole entry partner): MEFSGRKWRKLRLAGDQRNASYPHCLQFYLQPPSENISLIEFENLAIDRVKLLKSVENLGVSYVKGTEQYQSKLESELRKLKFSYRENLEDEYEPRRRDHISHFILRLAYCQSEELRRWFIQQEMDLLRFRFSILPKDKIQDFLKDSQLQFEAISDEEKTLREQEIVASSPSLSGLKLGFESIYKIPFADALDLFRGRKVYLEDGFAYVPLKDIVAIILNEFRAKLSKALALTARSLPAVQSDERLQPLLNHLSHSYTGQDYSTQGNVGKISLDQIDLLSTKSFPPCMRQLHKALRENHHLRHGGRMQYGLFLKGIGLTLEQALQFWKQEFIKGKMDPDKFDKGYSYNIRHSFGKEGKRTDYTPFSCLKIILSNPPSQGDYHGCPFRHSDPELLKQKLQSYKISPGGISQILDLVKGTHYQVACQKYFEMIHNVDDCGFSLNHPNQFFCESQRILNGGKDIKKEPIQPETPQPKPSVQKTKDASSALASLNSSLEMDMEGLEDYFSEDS

Row | Compound | IC50 (Molt-4 DNA polymerase a) [µM] | selectivity (HIV-reverse transcriptase vs Molt-4 DNA polymerase a) [1] [fold] | IC50 [2] [µM] | cytotoxicity (human cells in culture)
1 | CC(=O)c1cn(C2CC(O)C(COP(=O)(O)OP(=O)(O)OP(=O)(O)O)O2)c(=O)[nH]1 (stereo not shown) [dImdTP] | 17 | > 400 | 0.038 | –
2 | CC(=O)c1cn([C@H]2C[C@H](O)[C@@H](CO)O2)c(=O)[nH]1 [imidine, 1-(2-deoxy-β-D-ribofuranosyl)-4-acetylimidazolin-2-one] | – | – | – | no cytotoxicity
